Experimental data from patent US20190119298A1, “FUSED 3-PHENYLTETRAMIC ACID DERIVATIVES HAVING HERBICIDAL ACTION” (Bayer CropScience Aktiengesellschaft, priority 2016, published 2019).

Legend:
Format in all cases: in vivo
Lolium multiflorum [1] = assay: Post-emergence herbicidal effect; details: one-leaf stage, 320 g/ha, assessed visually after about 3 weeks, 100% = plants have died
How it was run: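 Plants in sandy loam treated post-emergence at one-leaf stage (2–3 weeks after sowing) with WP or EC formulations sprayed at 600–800 L/ha water plus 0.2% wetting agent. After about 3 weeks in the greenhouse, percent herbicidal action rated visually against untreated controls (100% = plants dead).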

Alopecurus myosuroides [2] = assay: Post-emergence herbicidal effect; details: one-leaf stage, 320 g/ha, assessed visually after about 3 weeks, 100% = plants have died
How it was run: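 Monocot and dicot plants grown in sandy loam in a greenhouse were sprayed at the one-leaf stage, 2–3 weeks after sowing, with WP or EC formulations in 600–800 L/ha water plus 0.2% wetting agent. Damage scored visually after about 3 weeks versus untreated controls (0% like control, 100% dead).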

Avena fatua [3] = assay: Post-emergence herbicidal effect; details: one-leaf stage, 320 g/ha, assessed visually after about 3 weeks, 100% = plants have died
How it was run: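 Greenhouse-grown plants in sandy loam treated at one-leaf stage, 2–3 weeks after sowing, by spraying WP or EC formulations as aqueous suspension/emulsion at 600–800 L/ha water with 0.2% wetting agent. After about 3 weeks, effect scored visually versus untreated controls (0% = like control, 100% = plants dead).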

Avena fatua [4] = assay: Pre-emergence herbicidal effect; details: 320 g/ha, scored visually after 3 weeks vs untreated controls, 100% = plants have died
How it was run: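 Weed and crop seeds sown in sandy loam were treated pre-emergence on the soil surface with WP or EC formulations at a water rate of 600 to 800 L/ha plus 0.2% wetting agent. Plants grown in a greenhouse; damage scored visually after 3 weeks as percent activity relative to untreated controls (100% = dead).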

Alopecurus myosuroides [5] = assay: Pre-emergence herbicidal effect; details: 320 g/ha, scored visually after 3 weeks vs untreated controls, 100% = plants have died
How it was run: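 Seeds sown in sandy loam and covered; WP- or EC-formulated compounds sprayed onto covering soil at 600–800 L/ha water with 0.2% wetting agent. Greenhouse-grown; damage scored visually after 3 weeks versus untreated controls (100% = plants died, 0% = like control).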

Setaria viridis [6] = assay: Post-emergence herbicidal effect; details: one-leaf stage, 320 g/ha, assessed visually after about 3 weeks, 100% = plants have died
How it was run: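 Greenhouse plants grown in sandy loam were sprayed at the one-leaf stage, 2-3 weeks after sowing. Compounds were applied as WP or EC formulations in 600-800 L/ha water plus 0.2% wetting agent. About 3 weeks later, damage was scored visually against untreated controls (0% = like control, 100% = dead plants).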

Echinochloa crus-galli [7] = assay: Pre-emergence herbicidal effect; details: 320 g/ha, scored visually after 3 weeks vs untreated controls, 100% = plants have died
How it was run: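 Wettable powder or emulsion concentrate sprayed onto soil covering freshly sown seeds in sandy loam, 600 to 800 L/ha water with 0.2% wetting agent. Pots kept in greenhouse. Damage scored visually after 3 weeks against untreated controls, 0-100% activity.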

Echinochloa crus-galli [8] = assay: Post-emergence herbicidal effect; details: one-leaf stage, 320 g/ha, assessed visually after about 3 weeks, 100% = plants have died
How it was run: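 Greenhouse plants in sandy loam were sprayed at the one-leaf stage with WP or EC formulations at 600 to 800 L/ha water with 0.2% wetting agent. After about 3 weeks, damage was scored visually in % against untreated controls (100% = dead).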

Setaria viridis [9] = assay: Pre-emergence herbicidal effect; details: 320 g/ha, scored visually after 3 weeks vs untreated controls, 100% = plants have died
How it was run: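 Pre-emergence: WP or EC formulations sprayed onto the soil surface over sown seeds in sandy loam at 600–800 L/ha water with 0.2% wetting agent. Plants kept in a greenhouse; damage scored visually after 3 weeks as % activity versus untreated controls (100% = dead).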

Lolium multiflorum [10] = assay: Pre-emergence herbicidal effect; details: 320 g/ha, scored visually after 3 weeks vs untreated controls, 100% = plants have died
How it was run: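 Seeds sown in sandy loam and covered; compounds as WP or EC applied to the soil surface pre-emergence at 600 to 800 L/ha water with 0.2% wetting agent. Greenhouse growth for 3 weeks, then damage scored visually versus untreated controls (100% = plants dead, 0% = like control).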

| Compound | Post-emergence effectiveness LOLMU (herbicidal action in percent) (Lolium multiflorum [1]) | Post-emergence effectiveness ALOMY (herbicidal action in percent) (Alopecurus myosuroides [2]) | Post-emergence effectiveness AVEFA (herbicidal action in percent) (Avena fatua [3]) | Pre-emergence action AVEFA (herbicidal activity in percent) (Avena fatua [4]) | Pre-emergence action ALOMY (herbicidal activity in percent) (Alopecurus myosuroides [5]) | Post-emergence effectiveness SETVI (herbicidal action in percent) (Setaria viridis [6]) | Pre-emergence action ECHCG (herbicidal activity in percent) (Echinochloa crus-galli [7]) | Post-emergence effectiveness ECHCG (herbicidal action in percent) (Echinochloa crus-galli [8]) | Pre-emergence action SETVI (herbicidal activity in percent) (Setaria viridis [9]) | Pre-emergence action LOLMU (herbicidal activity in percent) (Lolium multiflorum [10]) |
| --- | --- | --- | --- | --- | --- | --- | --- | --- | --- | --- |
| CCc1cc(Cl)cc(OC)c1C1=C(OC(=O)OC)C2CCOCCN2C1=O (stereo not shown) [Ib-1-16] | 100% | 100% | 100% | 100% | 100% | 100% | 100% | 100% | 100% | 100% |
| CCc1cccc(C)c1C1=C(OC(=O)C(C)(C)C)C2CCOCCN2C1=O (stereo not shown) [Ib-1-14] | 100% | 90% | 100% | 90% | 80% | 100% | 100% | 100% | 100% | 100% |
| CC(=O)OC1=C(c2c(C)cc(C)cc2C)C(=O)N2CCOCCC12 (stereo not shown) [Ib-1-12] | 100% | 100% | 100% | 90% | 100% | 100% | 100% | 100% | 100% | 100% |
| CCc1cc(Cl)cc(OC)c1C1=C(O)C2=CCOCCN2C1=O [Ia-3-4] | 100% | 100% | 100% | 80% | 80% | 100% | 90% | 100% | 100% | 90% |
| CCOC(=O)OC1=C(c2c(C)cc(C)cc2CC)C(=O)N2CCOCCC12 (stereo not shown) [Ib-1-7] | 100% | 100% | 100% | 100% | 100% | 100% | 100% | 100% | 100% | 100% |
| CCc1cc(Cl)cc(OC)c1C1=C(O)C2CCOCCN2C1=O (stereo not shown) [Ia-1-6] | 100% | 100% | 100% | 100% | 100% | 100% | 100% | 100% | 100% | 100% |
| CCc1cc(C)cc(C)c1C1=C(OC(=O)OC)C2CCOCCN2C1=O (stereo not shown) [Ib-1-6] | 100% | 100% | 100% | 100% | 100% | 100% | 100% | 100% | 100% | 100% |
